Experimental data from publication PMC11477717, “Synthesis of Carborane–Thiazole Conjugates as Tyrosinase and 11β-Hydroxysteroid Dehydrogenase Inhibitors: Antiproliferative Activity and Molecular Docking Studies” (Molecules, 2024).
Where two headings read alike, the source gives them in different places.

Tests used:
mushroom tyrosinase [1] = biological target: T1, mushroom tyrosinase (Agaricus bisporus, UniProt C7FF04); assay: Kinetic analysis of the inhibition of tyrosinase (Lineweaver-Burk); type: biochemical; settings: compound at 0.05 mM; for Mechanism of Inhibition: Lineweaver-Burk plots; for Vmax: L-DOPA 100-250 µM
T1 construct: purchased Sigma-Aldrich
Description: A series of experiments were performed to determine the inhibition kinetics of compounds by following the already reported method. The inhibitor concentrations for compounds were 50 and 100 µM. The substrate L-DOPA concentration was between 100 and 250 µM in all kinetic studies. Maximal initial velocity was determined from the initial linear portion of absorbance up to ten minutes after the addition of the enzyme. The inhibition type of the enzyme, Michaelis constant (KM), and maximal velocity (Vmax) were determined by Lineweaver–Burk plots of the inverse of velocities (1/V) versus the inverse of substrate concentration 1/[L-DOPA] mM^−1.

mushroom tyrosinase [2] = biological target: T1, mushroom tyrosinase; assay: Mushroom tyrosinase inhibition assay (L-DOPA, dopachrome 475 nm); type: biochemical
Description: The mushroom tyrosinase (Sigma-Aldrich) inhibition was performed following previously reported methods. […] The inhibitor solutions were prepared in DMSO with an initial concentration of 1 mM. Different aliquots were added to the solution containing the buffer, L-DOPA, and EDTA, with the enzyme being added last. […] Ascorbic acid was used as a reference inhibitor with an initial concentration of 1 mM. The IC50 values were calculated from the equation generated via exponential fit of the experimental data.

11β-HSD1 = biological target: T2, 11β-HSD1 (Homo sapiens, UniProt P28845); assay: Inhibition of 11β-HSD1 assay (cortisone to cortisol, microsomes, cortisol ELISA); type: biochemical; settings: for IC50: 5 inhibitor concentrations, three independent determinations, read-out: IC50 ± SD 11β-HSD1; for % of 11β-HSD1 Inhibition 10 μM: inhibitor 10 µM, 150 min, 37 °C
T2 construct: tissue XenoTech Lot No. 1410013; host or cells: pooled human liver microsomes
Description: L160706125, was obtained from Cloud-Clone Corp. PBS, Lot No. H161008, was obtained from Pan Biotech. […] L191113457, was obtained from Cloud-Clone Corp. […] The microplates were incubated on an orbital shaker for 150 min at 37 °C. […] The quantity of cortisol formed from cortisone was determined using a cortisol ELISA kit, […].

[3] = test system: A172 (human brain glioblastoma); assay: MTT antiproliferative assay, A172; type: cell-based; settings: for IC50: MTT, 72 h, A172 cells, read-out: IC50 ± SD A172; for SI HUVEC/A172: selectivity index = IC50 normal cell line / IC50 cancer cell line
Description: (§1) All cell lines were obtained from ATCC, and all chemicals were purchased from Sigma-Aldrich, St. Louis, MO, USA. […] All media were supplemented with antibiotic and antimycotic solutions, according to the manufacturers’ instructions. MTT cytotoxicity assessments were performed as described previously. […] The cells counted using an automated cell counter (Countess® II FL, Invitrogen by Thermo Fisher Scientific Inc., Waltham, MA, USA) were plated in 96-well plates (Nunc Edge 2F, Thermo Fisher Scientific Inc.) at a density of 0.1 × 10^4 per well. After an additional 72 h, cells underwent an MTT cytotoxicity assay (see below). The IC50 values were calculated using ED50plus v 1.0 freeware software (Instituto Nacional de Enfermedades Respiratorias, Mexico City, Mexico). Each cell line was tested in three independent replicates.
(§2) After the incubation time was complete, the medium was removed and crystals of formazan were solubilized in pure isopropanol. The absorbance readout was conducted immediately using a plate reader, Multiskan Spectrum, at 570 nm (Thermo Fisher Scientific Inc., Waltham, MA, USA). The background optical density was measured in the wells filled with the culture medium, without any cells.

11β-HSD2 = biological target: T3, 11β-HSD2 (Homo sapiens, UniProt P80365); assay: Inhibition of 11β-HSD2 assay (cortisol to cortisone, microsomes, cortisol ELISA); type: biochemical; settings: inhibitor 10 µM, 150 min, 37 °C
T3 construct: Human kidney microsomes, mixed gender, 0.5 mL, 10 mg/mL, Lot No. 1710160, were obtained from XenoTech; tissue XenoTech Lot No. 1710160; host or cells: human kidney microsomes
T3 sequence (P80365 1-405): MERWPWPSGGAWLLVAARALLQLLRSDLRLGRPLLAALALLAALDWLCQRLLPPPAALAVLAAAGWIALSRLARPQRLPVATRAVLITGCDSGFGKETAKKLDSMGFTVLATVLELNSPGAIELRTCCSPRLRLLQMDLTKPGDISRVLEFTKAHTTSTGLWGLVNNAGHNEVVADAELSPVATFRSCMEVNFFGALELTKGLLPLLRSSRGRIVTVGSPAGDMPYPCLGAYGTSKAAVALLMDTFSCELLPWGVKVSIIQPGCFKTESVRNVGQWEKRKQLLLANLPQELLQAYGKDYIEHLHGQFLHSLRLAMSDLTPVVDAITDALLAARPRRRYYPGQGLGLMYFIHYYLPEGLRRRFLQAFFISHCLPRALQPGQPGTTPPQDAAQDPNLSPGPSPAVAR
Description: The Enzyme-Linked Immunosorbent Assay (ELISA) Kit for 11-Beta-Hydroxysteroid Dehydrogenase Type 1, Lot No. L160706125, was obtained from Cloud-Clone Corp. PBS, Lot No. H161008, was obtained from Pan Biotech. […] The Enzyme-Linked Immunosorbent Assay (ELISA) Kit for 11-Beta-Hydroxysteroid Dehydrogenase Type 2, Lot No. L191113457, was obtained from Cloud-Clone Corp.
The oxidation reaction of cortisol to cortisone was carried out on 96-well microtiter plates in the presence of the enzyme 11β-HSD2 in a total volume of 100 µL. To this end, 60 µL of phosphate buffer (pH 7.4), 10 µL of a microsomes(0.12 µg/mL […]) solution in PBS (final quantity 2.5 µg), 20 µL of substrate mixture cortisol/NAD (final concentration 200 nM/2 mM), and 10 µL of the appropriate inhibitor solution (solvent DMSO/water 1/99, final concentration 10 µM) were placed in each well. The microplates were incubated on an orbital shaker for 150 min at 37 °C. […] The quantity of unreacted cortisol was determined using a cortisol ELISA kit DiaMetra.

[4] = test system: MDA-MB-231 (human breast adenocarcinoma); assay: MTT antiproliferative assay, MDA-MB-231; type: cell-based; settings: for IC50: MTT, 72 h, MDA-MB-231 cells, read-out: IC50 ± SD MDA-MB-231; for SI HUVEC/ MDA-MB-231: selectivity index = IC50 normal cell line / IC50 cancer cell line
Description: as §1, §2

[5] = test system: HUVEC (human umbilical vein endothelial cells); assay: MTT antiproliferative assay, HUVEC healthy control; type: cell-based; settings: 72 h, HUVEC normal cells, read-out: IC50 ± SD HUVEC
Description: All cell lines were obtained from ATCC, and all chemicals were purchased from Sigma-Aldrich, St. Louis, MO, USA. Briefly, cells were cultivated in a controlled atmosphere using DMEM medium with fetal bovine serum (FBS) at a final concentration of 10% (A-172), an L15 medium with 15% FBS, cultivated without CO2 (MDA-MB-231), F12K with a heparin final concentration of 0.1 mg/mL, endothelial cell growth supplement with a final concentration of 0.03 mg/mL (HUVEC), and RPMI with 5% FBS. All media were supplemented with antibiotic and antimycotic solutions, according to the manufacturers’ instructions. MTT cytotoxicity assessments were performed as described previously. Briefly, cell lines A172, B16F10, MDA-MB-231, and HUVEC were seeded 24 h prior to the addition of the tested compounds. The cells counted using an automated cell counter (Countess® II FL, Invitrogen by Thermo Fisher Scientific Inc., Waltham, MA, USA) were plated in 96-well plates (Nunc Edge 2F, Thermo Fisher Scientific Inc.) at a density of 0.1 × 10^4 per well. After an additional 72 h, cells underwent an MTT cytotoxicity assay (see below). The IC50 values were calculated using ED50plus v 1.0 freeware software (Instituto Nacional de Enfermedades Respiratorias, Mexico City, Mexico). Each cell line was tested in three independent replicates.
as §2, with “Twenty microliters of an MTT solution (MTT: 3-(4,5-dimethylthiazol-2-yl)-2,5-diphenyl tetrazolium bromide, stock solution: 5 mg/mL) was added to each cell line for 2 h (A172, B16F10, MDA-MB-231, and HUVEC). After” for “After”

B16F10 (murine melanoma) = assay: MTT antiproliferative assay, B16F10; type: cell-based; settings: for IC50: MTT, 72 h, B16F10 cells, read-out: IC50 ± SD B16F10; for SI HUVEC/ B16F10: selectivity index = IC50 normal cell line / IC50 cancer cell line
Description: as §1, §2

[6] = L-DOPA 0.17 mM, pH 6.8, room temperature, read-out: IC50 ± SD mushroom tyrosinase

T2 sequence (P28845 whole entry): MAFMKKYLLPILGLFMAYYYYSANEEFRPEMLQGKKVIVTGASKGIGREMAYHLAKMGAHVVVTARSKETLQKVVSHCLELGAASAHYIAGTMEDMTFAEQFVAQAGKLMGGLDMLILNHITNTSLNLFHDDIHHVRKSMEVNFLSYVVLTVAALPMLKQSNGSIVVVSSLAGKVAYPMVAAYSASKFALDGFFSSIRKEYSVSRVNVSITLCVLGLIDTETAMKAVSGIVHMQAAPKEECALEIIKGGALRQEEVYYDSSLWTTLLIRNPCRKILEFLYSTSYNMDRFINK
T1 sequence (C7FF04 1-392 limits assumed): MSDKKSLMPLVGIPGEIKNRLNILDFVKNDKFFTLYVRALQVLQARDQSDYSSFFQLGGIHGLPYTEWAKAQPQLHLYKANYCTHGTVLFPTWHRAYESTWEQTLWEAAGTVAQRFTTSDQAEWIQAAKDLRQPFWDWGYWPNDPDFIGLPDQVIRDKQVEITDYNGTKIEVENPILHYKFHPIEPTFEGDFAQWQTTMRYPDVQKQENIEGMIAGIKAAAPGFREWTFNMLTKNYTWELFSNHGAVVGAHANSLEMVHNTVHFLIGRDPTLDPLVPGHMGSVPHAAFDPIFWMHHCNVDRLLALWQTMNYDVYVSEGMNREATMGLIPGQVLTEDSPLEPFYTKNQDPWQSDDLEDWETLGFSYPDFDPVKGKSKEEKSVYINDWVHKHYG

| Substance | Mechanism of Inhibition (mushroom tyrosinase [1]) | Vmax (mushroom tyrosinase [1]) | IC50 (mushroom tyrosinase [2]; [6]) | IC50 (11β-HSD1) | % of 11β-HSD1 Inhibition 10 μM (11β-HSD1) | IC50 [3] | SI HUVEC/A172 [3] | % of 11β-HSD2 Inhibition 10 μM (11β-HSD2) | IC50 [4] | SI HUVEC/ MDA-MB-231 [4] | IC50 [5] | IC50 (B16F10 (murine melanoma)) | SI HUVEC/ B16F10 (B16F10 (murine melanoma)) | IC50 (mushroom tyrosinase [2]; rounded values in SAR summary, unit mM, read-out: IC50 tyrosinase inhibition) |
| --- | --- | --- | --- | --- | --- | --- | --- | --- | --- | --- | --- | --- | --- | --- |
| 2-(2-(1,2-Dicarba-closo-Dodecaboranylmethylene)Hydrazinyl)-4-(4-Nitrophenyl)Thiazole [4g] | Uncompetitive | 0.0521 mM/min | 0.105 ± 0.00908 mM | 7.05 ± 0.25 µM | 73.51% | 6.07 ± 1.06 µM | >1.65 | 32.55% | 6.96 ± 0.74 µM | >1.44 | > 10 µM | 5.11 µM | >1.96 | – |
| 2-(2-(1,2-Dicarba-closo-Dodecaboranylmethylene)Hydrazinyl)-4-p-Tolylthiazole [4d] | Mixed | 0.3820 mM/min | 0.121 ± 0.0219 mM | 9.05 ± 0.25 µM | 55.78% | 7.88 ± 0.98 µM | 1.06 | 27.83% | 6.85 ± 0.86 µM | 1.21 | 8.32 ± 0.09 µM | > 10 µM | – | 0.121 mM |
| 4-(4-Bromophenyl)-2-(2-(1,2-Dicarba-closo-Dodecaboranylmethylene)Hydrazinyl)Thiazole [4b] | Activator | 0.0912 mM/min | 0.145 ± 0.0144 mM | 6.9 ± 1.2 µM | 64.44% | 6.15 ± 0.26 µM | 1.21 | 27.36% | 6.56 ± 0.12 µM | 1.14 | 7.46 ± 0.13 µM | 5.37 ± 0.11 µM | 1.39 | – |
| 4-(4-Chlorophenyl)-2-(2-(1,2-Dicarba-closo-Dodecaboranylmethylene)Hydrazinyl)Thiazole [4a] | Mixed | 0.1656 mM/min | 0.13 ± 0.0209 mM | 7.03 ± 0.53 µM | 60.07% | 5.77 ± 0.96 µM | 1.19 | 25.47% | 6.54 ± 0.52 µM | 1.05 | 6.87 ± 0.33 µM | 5.03 ± 0.69 µM | 1.37 | – |
